According to ChEMBL document CHEMBL1833868, “Design and synthesis of resveratrol-based nitrovinylstilbenes as antimitotic agents” (J Med Chem, 2011):
pIC50: −log10 of the molar value. The source made the active and inactive calls. No cut-off for these calls is given here.

Columns and labels:
[1] = tested on: A549; assay: Antiproliferative activity against human A549 cells assessed as cell viability after 48 hrs by SRB assay; assay type: functional, cell-based; details: A549, 48 h
[2] = tested on: HeLa; assay: Antiproliferative activity against human HeLa cells assessed as cell viability after 48 hrs by SRB assay; assay type: functional, cell-based; details: for pIC50: Homo sapiens, HeLa, 48 h; for IC50: hela
[3] = tested on: HeLa; assay: Effect on formation of bipolar spindles in human HeLa cells at 5 uM after 24 hrs by indirect immunofluorescence analysis; assay type: functional, cell-based
[4] = tested on: HeLa; assay: Effect on nuclear condensation in human HeLa cells assessed as incomplete chromosome formation at 5 uM after 24 hrs by indirect immunofluorescence analysis; assay type: functional, cell-based
[5] = organism: Bos taurus; assay: Inhibition of bovine tubulin polymerization at 3 uM after 1 hr by fluorescence assay relative to control
[6] = tested on: HeLa; assay: Induction of cell cycle arrest in human HeLa cells assessed as accumulation of cells in G1 phase at 5 uM after 24 hrs by flow cytometry analysis (reference value: 69.43%); assay type: functional
[7] = tested on: HeLa; assay: Induction of cell cycle arrest in human HeLa cells assessed as accumulation of cells in G2/M phase at 5 uM after 24 hrs by flow cytometry analysis (reference value: 21.29%); assay type: functional
[8] = tested on: HeLa; assay: Antimitotic activity in human HeLa cells assessed as disruption of microtubule network at 5 uM after 24 hrs by indirect immunofluorescence analysis; assay type: functional, cell-based
[9] = tested on: HeLa; assay: Induction of apoptosis in human HeLa cells assessed as increase in caspase 3 activity at 5 uM after 24 hrs by fluorimetry relative to control; assay type: functional
[10] = tested on: HeLa; assay: Induction of cell cycle arrest in human HeLa cells assessed as accumulation of cells in S phase at 5 uM after 24 hrs by flow cytometry analysis (reference value: 9.28%); assay type: functional
[11] = tested on: MCF7; assay: Antiproliferative activity against human MCF7 cells assessed as cell viability after 48 hrs by SRB assay; assay type: functional, cell-based; details: MCF7, 48 h
[12] = Inhibition of bovine tubulin assembly after 1 hr by fluorescence assay; design: species or system Bos taurus
[13] = tested on: HeLa; assay: Induction of apoptosis in human HeLa cells assessed as increase in caspase 3 activity at 5 uM after 24 hrs by fluorimetry; assay type: functional, cell-based
[14] = tested on: HeLa; assay: Induction of apoptosis in human HeLa cells assessed as increase in caspase 3 activity at 40 uM after 24 hrs by fluorimetry relative to control; assay type: functional

Compound | pIC50 [1] | pIC50 [2] | Activity [3] | Activity [4] | inhibition [5] [%] | Activity [6] [%] | Activity [7] [%] | Activity [8] | fold change (FC) [9] | Activity [10] [%] | pIC50 [11] | pIC50 [12] | IC50 [2] | Activity [13] | fold change (FC) [14]
COc1cc(/C=C/[N+](=O)[O-])c(/C=C/c2ccc(C)cc2)c(OC)c1OC | 4.72 | 5.36 | inactive | Active | 62 | 9.66 | 66.43 | Active | 12 | 23.91 | 4.37 | 5.37 |  |  | 
COc1cc(/C=C/[N+](=O)[O-])c(/C=C/c2ccc(F)cc2)c(OC)c1OC | 4.44 | 4.91 |  |  | 31 |  |  |  |  |  | 4.72 |  |  |  | 
COc1cc(/C=C/c2c(/C=C/[N+](=O)[O-])cc(OC)c(OC)c2OC)cc(OC)c1OC | 4.57 |  |  |  | 20 |  |  |  |  |  | 4.88 |  | Not Active |  | 
COc1cc(/C=C/[N+](=O)[O-])c(/C=C/c2ccc3ccccc3c2)c(OC)c1OC | 4.23 | 3.72 |  |  | 32 |  |  |  |  |  | 4.78 |  |  |  | 
COc1cc(/C=C/[N+](=O)[O-])c(/C=C/c2ccc(-c3ccccc3)cc2)c(OC)c1OC | 4.35 |  |  |  | 28 |  |  |  |  |  | 5.14 |  | Not Active |  | 
COc1ccc(/C=C/c2c(/C=C/[N+](=O)[O-])cc(OC)c(OC)c2OC)cc1 | 4.39 | 5.11 | inactive | Active | 59 | 16.64 | 60.4 | Active | 10 | 22.96 | 4.67 | 5.31 |  |  | 
COc1cc(/C=C/[N+](=O)[O-])c(/C=C/c2ccc3c(c2)OCO3)c(OC)c1OC | 4.79 | 5.27 |  |  | 51 | 27.14 | 50.56 |  |  | 22.3 | 4.72 | 5.10 |  |  | 
COc1cc2c(c(OC)c1OC)-c1ccc(OC)c(=O)cc1[C@@H](NC(C)=O)CC2 [COLCHICINE] |  |  |  |  | 58 |  |  |  |  |  |  | 5.71 |  |  | 
COc1cc(/C=C/c2c(/C=C/[N+](=O)[O-])cc(OC)c(OC)c2OC)cc(OC)c1 | 4.82 | 5.00 |  |  | 27 |  |  |  |  |  | 4.72 |  |  |  | 
COc1cc(/C=C/[N+](=O)[O-])c(/C=C/c2ccc(Cl)cc2)c(OC)c1OC | 4.64 |  |  |  | 33 |  |  |  |  |  | 4.59 |  | Not Active |  | 
COc1cc(/C=C/[N+](=O)[O-])c(/C=C/c2ccccc2)c(OC)c1OC | 4.54 | 5.27 |  |  | 31 |  |  |  |  |  | 4.96 |  |  |  | 
COc1cc(/C=C/[N+](=O)[O-])c(/C=C/c2ccc(Br)cc2)c(OC)c1OC | 4.39 |  |  |  | 28 |  |  |  |  |  | 4.84 |  | Not Active |  | 
Oc1ccc(/C=C/c2cc(O)cc(O)c2)cc1 [RESVERATROL] | 4.35 | 4.65 |  |  |  |  |  |  |  |  | 4.10 |  |  | inactive | 5
